Columns and labels:
in vivo = settings: male, rat, plasma, iv
Procedure: Male rats (n=3) were given an intravenous 0.5 or 2.0 mg/kg bolus dose of test article dissolved in plasma with 1% DMSO and 2% ethanol (C30 only). Serial blood samples were collected up to 24 hours post-dose. Plasma was harvested from blood samples and stored frozen until sample analysis. Test article plasma concentrations were analyzed by LC/MS/MS.

786-O = test: Cytotoxicity assay (Version 2, automated, AC50) with/without neutrophil elastase; assay type: cell-based, human; settings: Version 2, activity concentration at −50%
How it was run: (§1)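 An automated MTT read-out (570 nm, 4 h reagent) followed 72 h at 37 °C with compound from 10^−5 to 10^−13 M, in triplicate, tested with and without 10 nM elastase. AC50, the concentration giving −50% metabolic activity, came from a 4-parameter Hill fit. Scaling ran from medium-only wells (−100%) to DMSO controls (0%).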

HT29 [1] = test: as above; assay type: cell-based, human; settings: Version 2, activity concentration at −50%
How it was run: as §1

NCI H292 [2] = test: as above; assay type: cell-based, human; settings: Version 2, activity concentration at −50%
How it was run: as §1

SUM149 [3] = test: as above; assay type: cell-based; settings: Version 2, activity concentration at −50%
How it was run: as §1

HT29 [4] = test: Cytotoxicity in vitro in presence/absence of cathepsin B; assay type: cell-based, human
NCI H292 [5] = test: as above; assay type: cell-based, human
SUM149 [6] = test: as above; assay type: cell-based
cathepsin B = cathepsin B (Homo sapiens, UniProt P07858); test: Biochemical cathepsin B cleavage assay (metabolite detection by RP-HPLC)
Procedure: Incubation of samples starts with addition of cathepsin B solution (2.5 μg in […] 50 mM sodium phosphate buffer, pH 6.0/2 mM DTT). The incubation is performed at 40° C., and after 16 h incubation a 40 μL sample is taken and added to 80 μL ice-cold methanol. […] The metabolite (product) and the parent compound (educt) is measured.

HT29 [7] = test: Cytotoxicity in vitro in presence/absence of legumain; assay type: cell-based, human
NCI H292 [8] = test: as above; assay type: cell-based, human
SUM149 [9] = test: as above; assay type: cell-based
rec. human legumain = rec. human legumain (Homo sapiens, UniProt Q99538); settings: for metabolite formation after incubation with legumain: 16 h incubation, 37° C., pH 5,0; for metabolite formation without addition of active legumain: control without active legumain
Sequence of rec. human legumain (Q99538 18-323 limits assumed): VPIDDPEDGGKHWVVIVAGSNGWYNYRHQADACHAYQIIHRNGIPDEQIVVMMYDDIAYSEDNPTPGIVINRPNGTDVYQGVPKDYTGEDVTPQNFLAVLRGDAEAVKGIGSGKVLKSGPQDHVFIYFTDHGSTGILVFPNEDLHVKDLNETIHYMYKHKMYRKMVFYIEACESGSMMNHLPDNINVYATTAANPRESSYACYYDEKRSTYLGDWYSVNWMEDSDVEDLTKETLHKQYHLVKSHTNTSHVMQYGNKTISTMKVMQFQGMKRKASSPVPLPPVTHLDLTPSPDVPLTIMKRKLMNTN
Procedure: 10 μg rec. human legumain are added to 100 μL activation buffer (50 mM sodium acetate buffer/100 mM NaCl, pH 4,0) and incubated for 2 h at 37° C., before 4.9 mL assay buffer (50 mM MES buffer/250 mM NaCl, pH 5,0) is added (final concentration of rec. hum. legumain: 2 μg/mL). For the selected sample, activated legumain is added to the compound solution. Then the solution is incubated at 37° C. At 16 h-a 50 μL sample is taken and added to 100 μL ice-cold methanol. For the untreated control (0 h) ice-cold methanol is pipetted in a tube before the legumain and compound solution are added. Samples can be stored at −20° C. or analyzed directly by HPLC or LCMS. The metabolite and the parent compound (educt) are measured.
Samples from enzymatic assays are added to the double volume of methanol and incubated for at least 30 min at −20° C. to precipitate proteins. Samples are then centrifuged for 10 min, 16100×g at 4° C. and analyzed by RP-HPLC using a gradient (PLRP-S-A1 79.0% PLRP-S—B1 21.0%, duration 24 min). After the centrifugation the supernatant is collected, calibration curves are obtained using the respective compound and the corresponding metabolite solution. A 10 mM DMSO stock solution is diluted with Methanol to achieve the chosen end concentration.

[10] = without (−) neutrophil elastase
[11] = HT29, with (+) neutrophil elastase
[12] = HT29, without (−) neutrophil elastase
[13] = NCI H292, with (+) neutrophil elastase
[14] = NCI H292, without (−) neutrophil elastase
[15] = SUM149, with (+) neutrophil elastase
[16] = SUM149, without (−) neutrophil elastase

| Compound | AUC (in vivo; 2 mg/kg) [ng·h/mL] | Vd (in vivo; 2 mg/kg) [L/kg] | clearance (in vivo; 2 mg/kg) [mL/min/kg] | half-life (in vivo; 2 mg/kg) [h] | AC50 (786-O; with (+) neutrophil elastase) [nM] | AC50 (786-O; [10]) [nM] | AC50 (HT29 [1]; [11]) [nM] | AC50 (HT29 [1]; [12]) [nM] | AC50 (NCI H292 [2]; [13]) [nM] | AC50 (NCI H292 [2]; [14]) [nM] | AC50 (SUM149 [3]; [15]) [nM] | AC50 (SUM149 [3]; [16]) [nM] | IC50 (HT29 [7]; HT29, with (+) legumain) [nM] | IC50 (HT29 [7]; HT29, without (−) legumain) [nM] | IC50 (NCI H292 [8]; NCI H292, with (+) legumain) [nM] | IC50 (NCI H292 [8]; NCI H292, without (−) legumain) [nM] | IC50 (SUM149 [9]; SUM149, with (+) legumain) [nM] | IC50 (SUM149 [9]; SUM149, without (−) legumain) [nM] | metabolite formation after incubation with legumain (rec. human legumain) | metabolite formation without addition of active legumain (rec. human legumain) | further results |
| --- | --- | --- | --- | --- | --- | --- | --- | --- | --- | --- | --- | --- | --- | --- | --- | --- | --- | --- | --- | --- | --- |
| CCCNC(=O)Nc1cccc(S(=O)(=O)Nc2cccc([C@H](CC(=O)O)NC(=O)Nc3ccc(NC(=O)NCCOCCOCCOCCC(=O)N[C@@H](CCCCNC(=O)CCOCCOCCOCCNC(=O)Nc4ccc(NC(=O)N[C@H](CC(=O)O)c5cccc(NS(=O)(=O)c6cccc(NC(=O)NCCC)c6)c5)cc4)C(=O)NCCOCCOCCOCCC(=O)N[C@@H](CC(=O)O)C(=O)N4CCC[C@H]4C(=O)N[C@H](C(=O)N=S(C)(=O)Cc4cc5nc(c4)OCCCOc4cc(F)ccc4-c4cc(ncc4F)N5)C(C)C)cc3)c2)c1 (relative stereo) [Compound 33] | 50000 to 150000 | > 0.1 | 0.5 to 5 | 10 to 20 |  |  |  |  |  |  |  |  |  |  |  |  |  |  |  |  |  |
| CCCNC(=O)Nc1cccc(S(=O)(=O)Nc2cccc([C@@H](CC(=O)O)NC(=O)Nc3ccc(NC(=O)NCCOCCOCCOCCC(=O)N[C@@H](CC(=O)O)C(=O)N4CCC[C@H]4C(=O)N[C@H](C(=O)N=[S@](C)(=O)Cc4cc5cc(c4)O[C@H](C)CCOc4cc(F)ccc4-c4nc(ncc4F)N5)C(C)C)cc3)c2)c1 (relative stereo) [Compound 48] |  |  |  |  |  |  |  |  |  |  |  |  |  |  |  |  |  |  |  |  | AUC (in vivo; 0.5 mg/kg): 1000 to 10000 ng·h/mL; Vd (in vivo; 0.5 mg/kg): 0.03 to 0.1 L/kg; clearance (in vivo; 0.5 mg/kg): > 5 mL/min/kg; half-life (in vivo; 0.5 mg/kg): 0.1 to 1 h |
| CCCNC(=O)Nc1cccc(S(=O)(=O)Nc2cccc([C@@H](CC(=O)O)NC(=O)Nc3ccc(NC(=O)NCCOCCOCCOCCC(=O)N[C@@H](CC(=O)O)C(=O)N4CCC[C@H]4C(=O)N[C@H](C(=O)N=S(C)(=O)Cc4cc5nc(c4)OCCCOc4cc(F)ccc4-c4cc(ncc4F)N5)C(C)C)cc3)c2)c1 (single isomer, unassigned) [Compound 41, disodium 1-{(2S)-2-(carboxylatomethyl)-17-[4-({[(1R)-2-carboxylato-1-{3-[({3-[(propylcarbamoyl)amino]phenyl}sulfonyl)amino]phenyl}ethyl]carbamoyl}amino)anilino]-4,17-dioxo-7,10,13-trioxa-3,16-diazaheptadecan-1-oyl}-L-prolyl-N—[(R*)—{[15,19-difluoro-3,4-dihydro-2H,11H-10,6-(azeno)-12,16-(metheno)-1,5,11,13-benzodioxadiazacyclooctadecin-8-yl]methyl}(methyl)oxido-lambda^6-sulfanylidene]-L-valinamide] | 1000 to 10000 | > 0.1 | 0.5 to 5 | 10 to 20 |  |  |  |  |  |  |  |  |  |  |  |  |  |  |  |  |  |
| CCCNC(=O)Nc1cccc(S(=O)(=O)Nc2cccc([C@@H](CC(=O)[O-])NC(=O)Nc3ccc(NC(=O)NCCOCCOCCOCCC(=O)N[C@H](C(=O)N[C@@H](CCCNC(N)=O)C(=O)N=[S@@](C)(=O)Cc4cc5cc(c4)OCCCCOc4cc(F)ccc4-c4nc(ncc4F)N5)C(C)C)cc3)c2)c1.[Na+] [Compound 7, sodium N-{14-[4-({[(1R)-2-carboxylato-1-{3-[({3-[(propylcarbamoyl)amino]phenyl}sulfonyl)amino]phenyl}ethyl]carbamoyl}amino)anilino]-14-oxo-4,7,10-trioxa-13-azatetradecan-1-oyl}-L-valyl-N^5-carbamoyl-N—[(S)-{[16,20-difluoro-2,3,4,5-tetrahydro-12H-13,17-(azeno)-11,7-(metheno)-1,6,12,14-benzodioxadiazacyclononadecin-9-yl]methyl}(methyl)oxido-lambda^6-sulfanylidene]-L-ornithinamide] |  |  |  |  | 11 to 100 | 11 to 100 | 11 to 100 | 11 to 100 | 100 to 1000 | 100 to 1000 | 11 to 100 | 11 to 100 |  |  |  |  |  |  |  |  | IC50 (HT29 [4]; HT29, with (+) cathepsin): > 100 nM; IC50 (HT29 [4]; HT29, without (−) cathepsin): > 100 nM; IC50 (NCI H292 [5]; NCI H292, with (+) cathepsin): 11 to 100 nM; IC50 (NCI H292 [5]; NCI H292, without (−) cathepsin): 11 to 100 nM; IC50 (SUM149 [6]; SUM149, with (+) cathepsin): 11 to 100 nM; IC50 (SUM149 [6]; SUM149, without (−) cathepsin): > 100 nM; metabolite detected after incubation with cathepsin B (cathepsin B; 16 h incubation, 40° C., pH 6.0): 16%; metabolite formation without addition of active cathepsin B (cathepsin B; control without active cathepsin B): no metabolite formation is detected |
| CCCNC(=O)Nc1cccc(S(=O)(=O)Nc2cccc([C@@H](CC(=O)[O-])NC(=O)Nc3ccc(NC(=O)NCCOCCOCCOCCC(=O)N[C@@H](C)C(=O)N(C)[C@@H](C)C(=O)N[C@@H](CC(=O)N=[S@@](C)(=O)Cc4cc5cc(c4)OCCCCOc4cc(F)ccc4-c4nc(ncc4F)N5)C(N)=O)cc3)c2)c1.[Na+] [Compound 8, sodium N-{14-[4-({[(1R)-2-carboxylato-1-{3-[({3-[(propylcarbamoyl)amino]phenyl}sulfonyl)amino]phenyl}ethyl]carbamoyl}amino)anilino]-14-oxo-4,7,10-trioxa-13-azatetradecan-1-oyl}-L-alanyl-N-methyl-L-alanyl-N′—[(S)-{[16,20-difluoro-2,3,4,5-tetrahydro-12H-13,17-(azeno)-11,7-(metheno)-1,6,12,14-benzodioxadiazacyclononadecin-9-yl]methyl}(methyl)oxido-lambda^6-sulfanylidene]-L-aspartamide] |  |  |  |  | 100 to 1000 | > 1000 | 11 to 100 | > 1000 | 100 to 1000 | 100 to 1000 | 100 to 1000 | > 1000 | 11 to 100 | 11 to 100 | 1.1 to 10 | 11 to 100 | 11 to 100 | 11 to 100 | complete metabolite formation | no metabolite formation is detected |  |
| Sodium N-{14-[4-({[(1S)-2-carboxylato-1-{3-[({3-[(propylcarbamoyl)amino]phenyl}sulfonyl) amino]phenyl}ethyl]carbamoyl}amino)anilino]-14-oxo-4,7,10-trioxa-13-azatetradecan-1-oyl}-L-alanyl-N-methyl-L-alanyl-N′—[(S)-{[16,20-difluoro-2,3,4,5-tetrahydro-12H-13,17-(azeno)-11,7-(metheno)-1,6,12,14-benzodioxadiazacyclononadecin-9-yl]methyl} (methyl)oxido-lambda^6-sulfanylidene]-L-aspartamide [Compound 13] |  |  |  |  | 11 to 100 | > 1000 | 11 to 100 | > 1000 | 100 to 1000 | 100 to 1000 | 11 to 100 | > 1000 | 11 to 100 | 11 to 100 | 11 to 100 | 11 to 100 | 11 to 100 | 11 to 100 | complete metabolite formation | no metabolite formation is detected |  |

Reference: patent US20240408222A1, “COMPOUNDS, PHARMACEUTICAL COMPOSITIONS, AND METHODS FOR THE TREATMENT, PREVENTION, OR MANAGEMENT OF HYPERPRO[…]” (VINCERX PHARMA GMBH, priority 2021, published 2024)
